Measurements published in patent US8389698B2, “Tanaproget derivatives, metabolites, and uses thereof” (Wyeth LLC, priority 2004, dated 2013).

Experiments:
[1] = Metabolite identification in liver microsomes; assay type: in vitro ADME; details: male and female rat, dog, and human liver microsomes
Description: (§1) The glucuronide of tanaproget was prepared in male rat liver microsomes, and the structure was identified as a S-glucuronide conjugate by liquid chromatography (LC)/mass spectrometry (MS) and nuclear magnetic resonance (NMR) spectroscopy. […] This S-glucuronide can also be synthetically prepared simultaneously with a N-glucuronide. The two synthetic glucuronides could be separated by HPLC and their structures were all characterized by LC/MS and NMR spectroscopy. In the following scheme, the NSP-989 terminology is used in the place of tanaproget.
Incubations (100 mL) were performed with tanaproget (40 μM), UDPGA (5 mM), magnesium chloride (10 mM), and male rat liver microsomes (1.5 mg/mL), in 0.1 M potassium phosphate buffer, pH 7.4 at 37° C. The samples were pre-incubated for 1 minute at 37° C., and the reactions were initiated by the addition of UDPGA. The sample was cooled using an ice bath to stop the reaction after 3 hours. Unreacted tanaproget was removed from the samples by two extractions with diethyl ether (200 mL×2).

[2] = system: alkaline phosphatase activity in T47D cells; experiment: Alkaline phosphatase activity in T47D cells; assay type: cell-based
Description: Tanaproget glucuronides are a prodrug of tanaproget, a first-in-class non-steroidal progesterone receptor agonist for use primarily in contraception. The effect of tanaproget glucuronides on alkaline phosphase activity in T47D cells is analyzed as follows.
Culture medium: DMEM:F12 (1:1) (GIBCO, BRL) supplemented with 5% (v/v) charcoal stripped fetal bovine serum (not heat-inactivated), 100 U/mL penicillin, 100 μg/mL streptomycin, and 2 mM GlutaMax (GIBCO, BRL).
Alkaline phosphatase assay buffer: I. 0.1M Tris-HCl, pH 9.8, containing 0.2% Triton X-100, 0.1M Tris-HCl, pH 9.8, containing 4 mM p-nitrophenyl phosphate (Sigma).
Frozen T47D cells are thawed in a 37° C. water bath and diluted to 280,000 cells/mL in culture medium. To each well in a 96-well plate (Falcon, Becton Dickinson Labware), 180 μl of diluted cell suspension is added.
Twenty μl of reference or test compounds diluted in the culture medium is then added to each well. The cells are incubated at 37° C. in a 5% CO2 humidified atmosphere for 24 hours. For high throughput screening, one concentration of each compound will be tested at 0.3 μg/mL. […]
For reference and test compounds, a dose response curve is generated for dose vs. the rate of enzyme reaction (slope). […] EC50 values are calculated from the retransformed values. […]

[3] = system: Glusulase (glucuronidase); experiment: Enzymatic hydrolysis of tanaproget glucuronide conjugate in pooled urine by Glusulase; assay type: in vitro ADME
Description: In order to confirm that that the tanaproget glucuronide derivative is a prodrug when delivered to patients, the ability of the glucuronide conjugate to be enzymatically cleaved by a glucuronidase which is native to the gastrointestinal tract in humans was used in the following assay.
Pooled urine samples (4-8 hr) from healthy women were hydrolyzed by Glusulase®. Aliquots (1 mL) of pooled urine were adjusted to pH 5 with 0.5 mL of 0.6 M sodium acetate buffer. The diluted urine was mixed with Glusulase® (9,000 units/mL, 100 μL) and incubated at 37° C. for 1 hr with gentle shaking. The reaction was stopped by the addition of 2 mL of acetone and the precipitate was removed by centrifugation. The supernatant was dried under nitrogen in a TurboVap™ (Caliper Life Sciences, Hopkinton, Mass.).

[4] = Drug related components in plasma; assay type: in vivo; details: rat, dog, and human plasma
Description: as §1

With `Cn1c(C#N)ccc1-c1ccc2c(c1)C(C)(C)OC(SC1OC(C(=O)O)C(O)C(O)C1O)=N2` [Tanaproget S-glucuronide, S-(β)-D-glucuronide of tanaproget] the “abundance as metabolite of tanaproget in liver microsomes” value [1] was “major metabolite”, the EC50 ([2]; Homo sapiens, 24 hours treatment) was 0.1 nM and the “efficacy as compared to progesterone” value ([2]; alkaline phosphatase, relative to progesterone) was 60%. The “conversion of glucuronide into tanaproget by Glusulase” value ([3]; pooled urine (4-8 hr) from healthy women, pH 5, Glusulase 9,000 units/mL, 37° C., 1 hr, HPLC and LC/MS) was “confirmed the conversion of glucuronide into parent drug tanaproget”, the “conversion of glucuronide into tanaproget in control incubations” value ([3]; same conditions without Glusulase, or with Glusulase and 10 mM saccharolactone (β-glucuronidase inhibitor)) was “no conversion of glucuronide conjugate into tanaproget was observed” and the “abundance as drug related component in plasma” value [4] was “major drug related component”.
